pIC50: −log10 of the molar value.
Legend:
[1] = molecular target: Bromodomain-containing protein 4 (Homo sapiens, UniProt O60885); assay: Inhibition of human BRD4 (1 to 477 residues) measured after 60 mins by TR-FRET assay
[2] = Antitumour activity against human JJN3R cells measured after 72 hrs by MTS assay; type: functional, cell-based; conditions: JJN-3R
[3] = Metabolic stability in mouse liver microsomes assessed as parent compound remaining at 0.5 uM after 10 mins; type: ADME, Microsome; conditions: read-out: Stability
[4] = Permeability coefficient of the compound by PAMPA; type: ADME; conditions: read-out: permeability
[5] = Permeability coefficient across apical to basolateral side in human Caco-2 cells; type: ADME, cell-based; conditions: read-out: permeability
[6] = Cmax in mouse at 30 mg/kg, po; type: ADME, organism-based; design: dose 30 mg/kg, route po; conditions: in vivo
[7] = Efflux ratio of permeability in human Caco-2 cells; type: ADME, cell-based
[8] = molecular target: Bromodomain-containing protein 2 (Homo sapiens, UniProt P25440); assay: Inhibition of human BRD2 measured by TR-FRET assay
[9] = molecular target: Bromodomain-containing protein 3 (Homo sapiens, UniProt Q15059); assay: Inhibition of human BRD3 measured by TR-FRET assay
[10] = molecular target: Cytochrome P450 2C19 (Homo sapiens, UniProt P33261); assay: Inhibition of CYP2C19 (unknown origin); type: ADME
[11] = molecular target: Cytochrome P450 3A4 (Homo sapiens, UniProt P08684); assay: Inhibition of CYP3A4 (unknown origin); type: ADME
[12] = Oral bioavailability in mouse at 5 mg/kg; type: ADME, organism-based; conditions: in vivo
[13] = Oral bioavailability in monkey at 5 mg/kg; type: ADME, organism-based, Macaca mulatta; conditions: rhesus monkey, in vivo
[14] = Elimination half life in mouse at 1.75 mg/kg, iv; type: ADME, organism-based; conditions: in vivo, read-out: beta t1/2 (converted)
[15] = Elimination half life in dog at 0.1 mg/kg, iv; type: ADME, organism-based, Canis lupus familiaris; conditions: in vivo, read-out: beta t1/2 (converted)
[16] = Elimination half life in monkey at 0.1 mg/kg, iv; type: ADME, organism-based, Macaca mulatta; conditions: rhesus monkey, in vivo, read-out: beta t1/2 (converted)
[17] = Total plasma clearance in mouse at 1.75 mg/kg, iv; type: ADME, organism-based
[18] = Total plasma clearance in rat at 1 mg/kg, iv; type: ADME, organism-based
[19] = Total plasma clearance in dog at 0.1 mg/kg, iv; type: ADME, organism-based, Canis lupus familiaris
[20] = Volume of distribution at steady state in mouse at 1.75 mg/kg, iv; type: ADME, organism-based; conditions: in vivo, read-out: Vdss
[21] = Volume of distribution at steady state in rat at 1 mg/kg, iv; type: ADME, organism-based; conditions: in vivo, read-out: Vdss
[22] = Anticancer activity against human HCC33 cells; type: functional, cell-based
[23] = system: NCI-H211; assay: Anticancer activity against human NCI-H211 cells; type: functional, cell-based
[24] = system: HCC44; assay: Anticancer activity against human HCC44 cells; type: functional, cell-based
[25] = system: NCI-H23; assay: Anticancer activity against human NCI-H23 cells; type: functional, cell-based
[26] = system: NCI-H2170; assay: Anticancer activity against human NCI-H2170 cells; type: functional, cell-based
[27] = system: SK-LU-1; assay: Anticancer activity against human SK-LU-1 cells; type: functional, cell-based
[28] = Anticancer activity against human HCC15 cells; type: functional, cell-based
[29] = system: NCI-H1703; assay: Anticancer activity against human NCI-H1703 cells; type: functional, cell-based
[30] = system: NCI-H1792; assay: Anticancer activity against human NCI-H1792 cells; type: functional, cell-based
[31] = system: NCI-H1793; assay: Anticancer activity against human NCI-H1793 cells; type: functional, cell-based
[32] = system: NCI-H2009; assay: Anticancer activity against human NCI-H2009 cells; type: functional, cell-based
[33] = system: NCI-H2030; assay: Anticancer activity against human NCI-H2030 cells; type: functional, cell-based
[34] = system: SW900; assay: Anticancer activity against human SW900 cells; type: functional, cell-based
[35] = Anticancer activity against human JJN3R cells; type: functional, cell-based; conditions: JJN-3R
[36] = system: MOLM-13; assay: Anticancer activity against human MOLM-13 cells; type: functional, cell-based
[37] = system: OCI-AML-3; assay: Anticancer activity against human OCI-AML3 cells; type: functional, cell-based
[38] = system: NCI-H211; assay: Anticlonogenic activity against human NCI-H211 cells; type: functional, cell-based
[39] = Cmax in human LG0787F cells xenografted in NSG mouse at 1 mg/kg/day, po bid; type: ADME, organism-based; design: dose 1 mg/kg/day, route po; conditions: in vivo
[40] = AUC in human LG0787F cells xenografted in NSG mouse at 1 mg/kg/day, po qd; type: ADME, organism-based; design: dose 1 mg/kg/day, route po; conditions: in vivo
[41] = AUC in human LG0787F cells xenografted in NSG mouse at 0.25 mg/kg/day, po bid; type: ADME, organism-based; design: dose 0.25 mg/kg/day, route po; conditions: in vivo
[42] = Drug concentration at steady state in human LG0787F cells xenografted in NSG mouse infused continuously over 6 days using Alzet pump; type: ADME; conditions: iv, 144 h, time 6 day
[43] = Drug concentration at steady state in human LG0787F cells xenografted in NSG mouse at 0.5 mg/kg/day infused continuously over 6 days using Alzet pump; type: ADME, organism-based; conditions: in vivo, 144 h, time 6 day
[44] = Antitumour activity against patient-derived human PAT81 cells xenografted in mouse model at 1.6 mg/kg, po bid, 5 days on and 2 days off for 2 weeks; type: functional; conditions: PAT81, 120 h, time 5 day, read-out: TGI
[45] = Antitumour activity against patient-derived human BR1977F cells xenografted in mouse model at 1.6 mg/kg, po bid, 5 days on and 2 days off for 2 weeks; type: functional; conditions: 120 h, time 5 day, read-out: TGI
[46] = Antitumour activity against patient-derived human PAT130 cells xenografted in mouse model at 1.6 mg/kg, po bid, 5 days on and 2 days off for 2 weeks; type: functional; conditions: PAT130, 120 h, time 5 day, read-out: TGI
[47] = Antitumour activity against patient-derived human BR1367F cells xenografted in mouse model at 1.6 mg/kg, po bid, 5 days on and 2 days off for 2 weeks; type: functional; conditions: 120 h, time 5 day, read-out: TGI
[48] = Antitumour activity against patient-derived human PAT150 cells xenografted in mouse model at 1.6 mg/kg, po bid, 5 days on and 2 days off for 2 weeks; type: functional; conditions: PAT150, 120 h, time 5 day, read-out: TGI
[49] = Antitumour activity against patient-derived human BR0869F cells xenografted in mouse model at 1.6 mg/kg, po bid, 5 days on and 2 days off for 2 weeks; type: functional; conditions: 120 h, time 5 day, read-out: TGI
[50] = Antitumour activity against patient-derived human LGO52.0F/Cis/R48 cells xenografted in mouse model at 1.6 mg/kg, po bid, 5 days on and 2 days off for 2 weeks; type: functional; conditions: LGO52.0F/Cis/R48, 120 h, time 5 day, read-out: TGI
[51] = Antitumour activity against patient-derived human PAT157 cells xenografted in mouse model at 1.6 mg/kg, po bid, 5 days on and 2 days off for 2 weeks; type: functional; conditions: PAT157, 120 h, time 5 day, read-out: TGI
[52] = Antitumour activity against patient-derived human PAT160 cells xenografted in mouse model at 1.6 mg/kg, po bid, 5 days on and 2 days off for 2 weeks; type: functional; conditions: PAT160, 120 h, time 5 day, read-out: TGI
[53] = molecular target: CREB-binding protein (Homo sapiens) (UniProt Q92793)
Description: Binding affinity to CREBBP (unknown origin) assessed as change in melting temperature of protein

[54] = molecular target: Histone acetyltransferase p300 (Homo sapiens) (UniProt Q09472)
Sequence of Histone acetyltransferase p300 (Homo sapiens) (Q09472 whole entry): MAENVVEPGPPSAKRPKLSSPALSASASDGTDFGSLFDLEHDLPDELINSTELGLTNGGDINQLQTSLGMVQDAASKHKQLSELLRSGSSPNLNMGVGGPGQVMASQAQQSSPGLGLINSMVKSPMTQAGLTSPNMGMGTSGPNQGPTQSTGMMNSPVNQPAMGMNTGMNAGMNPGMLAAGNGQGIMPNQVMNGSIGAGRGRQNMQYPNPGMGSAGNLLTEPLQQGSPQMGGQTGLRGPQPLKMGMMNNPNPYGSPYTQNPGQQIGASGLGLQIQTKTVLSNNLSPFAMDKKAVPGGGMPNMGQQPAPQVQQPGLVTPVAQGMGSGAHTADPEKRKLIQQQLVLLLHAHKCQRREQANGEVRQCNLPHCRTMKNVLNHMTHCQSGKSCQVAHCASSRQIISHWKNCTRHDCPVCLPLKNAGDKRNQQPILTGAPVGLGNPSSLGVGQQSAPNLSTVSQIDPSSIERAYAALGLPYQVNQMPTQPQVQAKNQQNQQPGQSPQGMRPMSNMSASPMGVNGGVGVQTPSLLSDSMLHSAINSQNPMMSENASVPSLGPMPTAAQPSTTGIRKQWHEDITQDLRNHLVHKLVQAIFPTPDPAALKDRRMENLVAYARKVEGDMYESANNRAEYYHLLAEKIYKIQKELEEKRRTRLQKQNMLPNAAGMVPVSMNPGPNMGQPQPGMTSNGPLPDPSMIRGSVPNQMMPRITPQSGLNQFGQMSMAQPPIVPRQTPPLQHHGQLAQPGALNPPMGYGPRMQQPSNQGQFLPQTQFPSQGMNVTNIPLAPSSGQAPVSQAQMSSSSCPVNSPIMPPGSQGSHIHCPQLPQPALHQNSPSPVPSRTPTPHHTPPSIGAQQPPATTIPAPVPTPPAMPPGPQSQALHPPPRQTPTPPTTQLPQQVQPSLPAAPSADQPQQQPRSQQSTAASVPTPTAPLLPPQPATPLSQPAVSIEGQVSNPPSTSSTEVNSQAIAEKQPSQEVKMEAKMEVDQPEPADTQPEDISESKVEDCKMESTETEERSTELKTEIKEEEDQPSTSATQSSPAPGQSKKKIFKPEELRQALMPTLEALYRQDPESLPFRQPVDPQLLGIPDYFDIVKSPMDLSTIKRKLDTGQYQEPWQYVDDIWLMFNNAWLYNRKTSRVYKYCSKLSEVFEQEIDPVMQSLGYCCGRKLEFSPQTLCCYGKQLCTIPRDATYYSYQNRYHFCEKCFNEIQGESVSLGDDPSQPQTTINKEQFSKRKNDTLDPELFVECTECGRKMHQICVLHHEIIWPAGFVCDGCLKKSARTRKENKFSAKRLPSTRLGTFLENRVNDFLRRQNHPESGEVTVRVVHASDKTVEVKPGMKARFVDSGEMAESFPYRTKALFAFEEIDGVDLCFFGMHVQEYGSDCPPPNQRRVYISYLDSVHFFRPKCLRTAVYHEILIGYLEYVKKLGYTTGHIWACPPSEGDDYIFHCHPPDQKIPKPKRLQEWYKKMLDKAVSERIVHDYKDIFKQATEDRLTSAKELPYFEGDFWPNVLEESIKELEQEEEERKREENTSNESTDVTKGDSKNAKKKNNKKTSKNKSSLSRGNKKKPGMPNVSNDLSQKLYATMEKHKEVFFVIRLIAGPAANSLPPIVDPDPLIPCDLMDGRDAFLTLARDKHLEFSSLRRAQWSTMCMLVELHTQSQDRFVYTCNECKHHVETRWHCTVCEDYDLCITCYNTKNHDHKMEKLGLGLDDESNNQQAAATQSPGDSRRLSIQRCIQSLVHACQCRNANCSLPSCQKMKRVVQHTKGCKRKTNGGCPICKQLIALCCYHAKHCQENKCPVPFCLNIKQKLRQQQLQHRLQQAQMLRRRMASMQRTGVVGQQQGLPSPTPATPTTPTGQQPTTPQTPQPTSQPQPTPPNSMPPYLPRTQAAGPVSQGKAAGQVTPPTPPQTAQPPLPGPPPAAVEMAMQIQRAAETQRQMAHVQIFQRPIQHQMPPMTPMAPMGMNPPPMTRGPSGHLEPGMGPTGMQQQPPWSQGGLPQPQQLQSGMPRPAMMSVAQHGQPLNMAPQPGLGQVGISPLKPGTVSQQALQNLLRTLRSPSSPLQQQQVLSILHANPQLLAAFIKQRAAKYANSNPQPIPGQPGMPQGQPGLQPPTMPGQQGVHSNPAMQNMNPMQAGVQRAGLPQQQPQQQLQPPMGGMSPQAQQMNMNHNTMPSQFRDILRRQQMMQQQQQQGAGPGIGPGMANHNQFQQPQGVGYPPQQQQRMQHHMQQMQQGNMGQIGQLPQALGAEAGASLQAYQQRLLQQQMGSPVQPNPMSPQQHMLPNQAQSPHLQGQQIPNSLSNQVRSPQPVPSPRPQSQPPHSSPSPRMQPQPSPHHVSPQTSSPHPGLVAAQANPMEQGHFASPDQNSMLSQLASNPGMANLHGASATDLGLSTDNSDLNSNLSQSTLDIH
Description: Binding affinity to EP300 (unknown origin) assessed as change in melting temperature of protein

Sequence of Bromodomain-containing protein 2 (P25440 whole entry): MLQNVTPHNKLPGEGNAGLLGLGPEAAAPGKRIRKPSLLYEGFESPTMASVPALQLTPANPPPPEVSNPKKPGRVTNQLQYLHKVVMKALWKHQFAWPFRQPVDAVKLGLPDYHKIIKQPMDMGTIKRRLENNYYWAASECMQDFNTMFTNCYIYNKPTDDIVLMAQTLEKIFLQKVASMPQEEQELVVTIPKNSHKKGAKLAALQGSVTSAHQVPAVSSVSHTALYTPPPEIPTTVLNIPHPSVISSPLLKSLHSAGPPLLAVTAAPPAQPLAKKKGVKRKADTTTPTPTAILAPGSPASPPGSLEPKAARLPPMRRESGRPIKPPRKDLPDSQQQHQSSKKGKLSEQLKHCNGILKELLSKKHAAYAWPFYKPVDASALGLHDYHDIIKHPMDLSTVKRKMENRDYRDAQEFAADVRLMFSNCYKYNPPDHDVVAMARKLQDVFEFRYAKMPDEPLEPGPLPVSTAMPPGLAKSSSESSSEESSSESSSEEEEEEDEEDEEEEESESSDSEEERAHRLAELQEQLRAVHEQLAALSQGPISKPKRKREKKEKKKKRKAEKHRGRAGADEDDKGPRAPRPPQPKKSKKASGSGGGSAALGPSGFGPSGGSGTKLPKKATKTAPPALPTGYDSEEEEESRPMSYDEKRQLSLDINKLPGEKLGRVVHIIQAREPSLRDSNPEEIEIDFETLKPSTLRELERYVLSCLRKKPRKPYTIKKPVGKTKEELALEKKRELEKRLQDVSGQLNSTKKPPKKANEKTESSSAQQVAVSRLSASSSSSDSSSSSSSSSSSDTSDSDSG
Sequence of Cytochrome P450 3A4 (P08684 whole entry): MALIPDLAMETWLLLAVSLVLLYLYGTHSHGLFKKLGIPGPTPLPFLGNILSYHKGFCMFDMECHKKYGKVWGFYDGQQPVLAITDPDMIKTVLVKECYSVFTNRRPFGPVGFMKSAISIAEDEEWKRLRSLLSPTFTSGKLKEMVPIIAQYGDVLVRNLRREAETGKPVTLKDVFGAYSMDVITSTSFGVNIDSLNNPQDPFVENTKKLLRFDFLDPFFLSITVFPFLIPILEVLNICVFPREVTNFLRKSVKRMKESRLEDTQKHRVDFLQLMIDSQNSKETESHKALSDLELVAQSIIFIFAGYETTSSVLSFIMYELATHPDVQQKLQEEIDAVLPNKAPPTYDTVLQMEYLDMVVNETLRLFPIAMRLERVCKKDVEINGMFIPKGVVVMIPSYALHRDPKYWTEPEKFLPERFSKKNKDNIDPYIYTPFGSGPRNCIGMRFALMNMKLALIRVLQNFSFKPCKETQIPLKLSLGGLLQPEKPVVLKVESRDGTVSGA
Sequence of Cytochrome P450 2C19 (P33261 whole entry): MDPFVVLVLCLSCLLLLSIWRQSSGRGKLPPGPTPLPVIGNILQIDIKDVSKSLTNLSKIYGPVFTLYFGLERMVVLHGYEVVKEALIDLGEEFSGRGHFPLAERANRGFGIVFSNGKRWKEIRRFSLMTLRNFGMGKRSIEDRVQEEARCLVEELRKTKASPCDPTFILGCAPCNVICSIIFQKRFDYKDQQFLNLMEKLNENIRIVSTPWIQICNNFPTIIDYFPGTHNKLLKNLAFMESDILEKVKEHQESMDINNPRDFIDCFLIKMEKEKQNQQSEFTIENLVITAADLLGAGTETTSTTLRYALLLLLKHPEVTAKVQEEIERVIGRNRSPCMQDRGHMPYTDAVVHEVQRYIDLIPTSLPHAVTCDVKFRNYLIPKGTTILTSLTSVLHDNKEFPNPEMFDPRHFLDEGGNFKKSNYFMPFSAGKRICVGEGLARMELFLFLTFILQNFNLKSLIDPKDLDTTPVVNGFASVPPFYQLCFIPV
Sequence of Bromodomain-containing protein 3 (Q15059 whole entry): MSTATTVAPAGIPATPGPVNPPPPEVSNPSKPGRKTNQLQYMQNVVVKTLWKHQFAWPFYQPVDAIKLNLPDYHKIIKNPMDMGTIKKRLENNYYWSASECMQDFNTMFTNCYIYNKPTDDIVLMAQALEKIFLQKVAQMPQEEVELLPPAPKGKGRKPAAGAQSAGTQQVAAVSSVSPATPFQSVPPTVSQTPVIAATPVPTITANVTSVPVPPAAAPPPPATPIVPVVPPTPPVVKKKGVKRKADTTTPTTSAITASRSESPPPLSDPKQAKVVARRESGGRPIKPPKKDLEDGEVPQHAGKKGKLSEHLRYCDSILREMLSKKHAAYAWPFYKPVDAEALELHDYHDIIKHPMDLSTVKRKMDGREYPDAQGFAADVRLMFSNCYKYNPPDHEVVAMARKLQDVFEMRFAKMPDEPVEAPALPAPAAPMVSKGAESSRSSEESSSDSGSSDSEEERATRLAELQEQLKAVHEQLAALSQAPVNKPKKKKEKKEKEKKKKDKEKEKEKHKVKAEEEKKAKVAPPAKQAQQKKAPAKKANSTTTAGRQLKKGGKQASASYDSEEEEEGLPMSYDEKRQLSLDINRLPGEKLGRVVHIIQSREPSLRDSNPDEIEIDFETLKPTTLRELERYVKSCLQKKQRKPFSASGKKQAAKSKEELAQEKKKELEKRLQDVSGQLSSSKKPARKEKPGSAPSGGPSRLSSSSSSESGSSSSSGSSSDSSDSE

For `Cc1nnn(C)c1-c1cnc2c3ccc(C(C)(C)O)cc3n([C@H](c3ccccc3)C3CCOCC3)c2c1` [EZOBRESIB], the pIC50 [1] was 8.96, the pIC50 [2] was 8.44 and the remaining at 10 min, 0.5 µM [3] was 66%. The Papp [4] was 66.1 ×10⁻⁶ cm/s, the Papp A→B [5] was 13.3 ×10⁻⁶ cm/s and the Cmax [6] was 11900 nM. It also gave an efflux ratio [7] of 2.6, a pIC50 [8] of 8.85 and a pIC50 [9] of 8.96. It also gave a pIC50 [10] of 5.25, a pIC50 [11] of less than 4.70 and a bioavailability [12] of 100%. For the same compound, the bioavailability [13] was 16%, the half-life [14] was 1.8 h and the half-life [15] was 5.6 h. It also gave a half-life [16] of 2 h, a clearance [17] of 12 mL/min/kg and a clearance [18] of 41 mL/min/kg. The clearance [19] was 15 mL/min/kg, the Vd [20] was 1.9 L/kg and the Vd [21] was 4.3 L/kg. The pIC50 [22] was 9.64, the pIC50 [23] was 9.52 and the pIC50 [24] was 8.57. For the same compound, the pIC50 [25] was 7.21, the pIC50 [26] was 7.04 and the pIC50 [27] was 6.68. For the same compound, the pIC50 [28] was 6.44, the pIC50 [29] was less than 6.30 and the pIC50 [30] was less than 6.30. For the same compound, the pIC50 [31] was less than 6.30, the pIC50 [32] was less than 6.30 and the pIC50 [33] was less than 6.30. For the same compound, the pIC50 [34] was less than 6.30, the pIC50 [35] was 9.15 and the pIC50 [36] was 8.77. The pIC50 [37] was 9.15, the pIC50 [38] was 8.25 and the Cmax [39] was 40 nM. For the same compound, the AUC [40] was 0.6 µM·h, the AUC [41] was 0.3 µM·h and the Css [42] was 17 nM. It also gave a Css [43] of 10 nM, an inhibition in vivo at 1.6 mg/kg [44] of 112% and an inhibition in vivo at 1.6 mg/kg [45] of 88%. For the same compound, the inhibition in vivo at 1.6 mg/kg [46] was 76%, the inhibition in vivo at 1.6 mg/kg [47] was 68% and the inhibition in vivo at 1.6 mg/kg [48] was 62%. It also gave an inhibition in vivo at 1.6 mg/kg [49] of 56%, an inhibition in vivo at 1.6 mg/kg [50] of 50% and an inhibition in vivo at 1.6 mg/kg [51] of 23%. The inhibition in vivo at 1.6 mg/kg [52] was 9%, the ΔTm [53] was 5.6 °C and the ΔTm [54] was 9.5 °C.
